Measured values as given in patent US20100216751A1 (priority 2007, published 2010).

Experiment: Pharmacokinetic evaluation of liquid bevirimat dosage forms, oral gavage, male Cynomolgus monkeys
Conditions: male, cynomolgus monkey, in vivo, po; for AUC / Cmax / half-life / Tmax: 200 mg
Experimental: Six male Cynomolgus monkeys having an initial body weight of about 3.5 to about 4.5 kg are allowed 7 days to acclimate to their individual housing units. Monkeys are supplied with water and a commercial diet ad libitum prior to the study initiation. Food is withheld from the monkeys for a minimum of twelve hours before the study and during the study until four hours postdose when food is returned. Water is supplied ad libitum.
Test formulations are administered to the monkeys at time 0 on appropriate days. Test formulations will be dosed orally via oral gavage or intravenously.
Samples are drawn at the frequencies indicated below. Each blood sample (0.5 mL) is collected from the monkey's saphenous vein via a butterfly catheter and placed into a chilled polypropylene tube containing sodium heparin as the anticoagulant. Blood samples are centrifuged at a temperature of 4° C. at a speed of 3,000 rpm for 15 minutes. All samples are maintained chilled throughout processing. Plasma is collected after centrifugation, pipetted into a 2-mL polypropylene microtube, and frozen on dry-ice pending analytical evaluation.

[1] = 50 mg/monkey, Plasma Concentration, PG/glycerin/Vitamin ETPGS/Tween80/Plasdone C15 formulation, AVG
[2] = 50 mg/monkey, Plasma Concentration, PG/glycerin/Vitamin ETPGS/Tween80/Plasdone C15 formulation, individual monkey
[3] = 50 mg/monkey, Plasma Concentration, PG/glycerin/Vitamin ETPGS/ethanol formulation, AVG
[4] = 50 mg/monkey, Plasma Concentration, PG/glycerin/Vitamin ETPGS/ethanol formulation, individual monkey
[5] = 200 mg/monkey, Plasma Concentration, PG/glycerin/Vitamin ETPGS/ethanol formulation, AVG
[6] = 200 mg/monkey, Plasma Concentration, PG/glycerin/Vitamin ETPGS/ethanol formulation, individual monkey

For `C=C(C)[C@@H]1CC[C@]2(C(=O)O)CC[C@]3(C)[C@H](CC[C@@H]4[C@@]5(C)CC[C@H](OC(=O)CC(C)(C)C(=O)O)C(C)(C)[C@@H]5CC[C@]43C)[C@@H]12` [Bevirimat, 3-O-(3′,3′-dimethylsuccinyl)betulinic acid], the concentration at 1 h (50 mg/monkey, Plasma Concentration, PG/glycerin/Vitamin ETPGS/Tween80/Plasdone C15 formulation, 1.0 hr, AVG) was 24800 ng/mL, the concentration at 2 h [1] was 61600 ng/mL and the concentration at 2 h [2] was 52700 ng/mL. The concentration at 4 h [1] was 53600 ng/mL, the concentration at 4 h [2] was 55100 ng/mL and the concentration at 6 h [1] was 32300 ng/mL. The concentration at 6 h [2] was 31500 ng/mL, the concentration at 8 h (50 mg/monkey, Plasma Concentration, PG/glycerin/Vitamin ETPGS/Tween80/Plasdone C15 formulation, 8.0 hr, AVG) was 21000 ng/mL and the concentration at 8 h (50 mg/monkey, Plasma Concentration, PG/glycerin/Vitamin ETPGS/Tween80/Plasdone C15 formulation, 8.0 hr, individual monkey) was 22300 ng/mL. For the same compound, the concentration at 12 h (50 mg/monkey, Plasma Concentration, PG/glycerin/Vitamin ETPGS/Tween80/Plasdone C15 formulation, 12 hr, AVG) was 8160 ng/mL, the concentration at 12 h (50 mg/monkey, Plasma Concentration, PG/glycerin/Vitamin ETPGS/Tween80/Plasdone C15 formulation, 12 hr, individual monkey) was 8580 ng/mL and the concentration at 24 h (50 mg/monkey, Plasma Concentration, PG/glycerin/Vitamin ETPGS/Tween80/Plasdone C15 formulation, 24 hr, AVG) was 1270 ng/mL. The concentration at 24 h (50 mg/monkey, Plasma Concentration, PG/glycerin/Vitamin ETPGS/Tween80/Plasdone C15 formulation, 24 hr, individual monkey) was 1320 ng/mL, the concentration at 48 h (50 mg/monkey, Plasma Concentration, PG/glycerin/Vitamin ETPGS/Tween80/Plasdone C15 formulation, 48 hr, AVG) was 336 ng/mL and the concentration at 72 h (50 mg/monkey, Plasma Concentration, PG/glycerin/Vitamin ETPGS/Tween80/Plasdone C15 formulation, 72 hr, individual monkey) was 112 ng/mL. For the same compound, the concentration at 0.25 h (50 mg/monkey, Plasma Concentration, PG/glycerin/Vitamin ETPGS/ethanol formulation, 0.25 hr, individual monkey) was 78.4 ng/mL, the concentration at 0.5 h (50 mg/monkey, Plasma Concentration, PG/glycerin/Vitamin ETPGS/ethanol formulation, 0.50 hr, AVG) was 246 ng/mL and the concentration at 1 h (50 mg/monkey, Plasma Concentration, PG/glycerin/Vitamin ETPGS/ethanol formulation, 1.0 hr, AVG) was 36900 ng/mL. For the same compound, the concentration at 2 h [3] was 60100 ng/mL, the concentration at 2 h [4] was 58900 ng/mL and the concentration at 4 hr [3] was 42500 ng/mL. It also gave a concentration at 4 h [4] of 34500 ng/mL, a concentration at 6 hr [3] of 23000 ng/mL and a concentration at 8 hr (50 mg/monkey, Plasma Concentration, PG/glycerin/Vitamin ETPGS/ethanol formulation, 8.0 hr, AVG) of 14700 ng/mL. The concentration at 12 hr (50 mg/monkey, Plasma Concentration, PG/glycerin/Vitamin ETPGS/ethanol formulation, 12 hr, AVG) was 5310 ng/mL, the concentration at 24 hr (50 mg/monkey, Plasma Concentration, PG/glycerin/Vitamin ETPGS/ethanol formulation, 24 hr, AVG) was 1340 ng/mL and the concentration at 48 hr (50 mg/monkey, Plasma Concentration, PG/glycerin/Vitamin ETPGS/ethanol formulation, 48 hr, AVG) was 149 ng/mL. For the same compound, the AUC (AUCall) was 1300 µg·h/mL, the AUC (AUCall, 200 mg/monkey, PG/glycerin/Vitamin ETPGS/ethanol formulation, individual monkey) was 1200 µg·h/mL and the Cmax (Cmax, 200 mg/monkey, PG/glycerin/Vitamin ETPGS/ethanol formulation, AVG) was 217000 ng/mL. It also gave a Cmax (Cmax, 200 mg/monkey, PG/glycerin/Vitamin ETPGS/ethanol formulation, individual monkey) of 202000 ng/mL, an AUC (pH 8) of 1970 µg·h/mL and a Cmax (pH 8) of 225000 ng/mL. It also gave a half-life (pH 8) of 8.3 h, an AUC (pH 8, AUCall) of 1390 µg·h/mL and a Tmax (pH 8, tmax) of 2 h. It also gave a half-life (t1/2, oral, 200 mg/monkey, PG/glycerin/Vitamin ETPGS/ethanol formulation, AVG) of 10.8 h, a half-life (t1/2, oral, 200 mg/monkey, PG/glycerin/Vitamin ETPGS/ethanol formulation, individual monkey) of 11.4 h and a Tmax (tmax) of 2 h. For the same compound, the concentration at 0.25 hr (200 mg/monkey, Plasma Concentration, PG/glycerin/Vitamin ETPGS/ethanol formulation, 0.25 hr, AVG) was 565 ng/mL, the concentration at 0.5 hr (200 mg/monkey, Plasma Concentration, PG/glycerin/Vitamin ETPGS/ethanol formulation, 0.50 hr, AVG) was 6020 ng/mL and the concentration at 1 hr (200 mg/monkey, Plasma Concentration, PG/glycerin/Vitamin ETPGS/ethanol formulation, 1.0 hr, AVG) was 64800 ng/mL. It also gave a concentration at 2 hr [5] of 217000 ng/mL, a concentration at 2 hr [6] of 202000 ng/mL and a concentration at 4 hr [5] of 152000 ng/mL. For the same compound, the concentration at 4 hr [6] was 166000 ng/mL and the concentration at 6 hr [5] was 77800 ng/mL.
